Target: CDK2 (UniProt P24941)
Test: Enzyme Assay
Settings: concentration not given here

SMILES | inhibition [%]
CC(=O)c1ccc(-c2n[nH]c3ccc(NS(=O)(=O)c4ccccc4S(C)(=O)=O)cc23)cc1 | 56
O=S(=O)(Nc1ccc2[nH]nc(-c3ccccc3)c2c1)c1ccccc1 | 84
Cc1cccc(S(=O)(=O)Nc2ccc3[nH]nc(-c4ccccc4)c3c2)c1 | 72
CC(=O)Nc1ccc(S(=O)(=O)Nc2ccc3[nH]nc(-c4ccccc4)c3c2)cc1 | 73
CN(C)c1c(F)c(F)c(S(=O)(=O)Nc2ccc3[nH]nc(-c4cc5ccccc5[nH]4)c3c2)c(F)c1F | 53
CS(=O)(=O)c1ccccc1S(=O)(=O)Nc1ccc2[nH]nc(-c3ccc(F)c(Cl)c3)c2c1 | 77
Nc1n[nH]c2ccc(NS(=O)(=O)c3cccc(F)c3)cc12 | 34
CC(C)(C)c1ccc(-c2n[nH]c3ccc(NS(=O)(=O)c4ccccc4S(C)(=O)=O)cc23)cc1 | 0
CS(=O)(=O)c1ccccc1S(=O)(=O)Nc1ccc2[nH]nc(-c3ccc(F)c(F)c3)c2c1 | 72
O=S(=O)(Nc1ccc2[nH]nc(-c3cc4ccccc4[nH]3)c2c1)c1ccccc1 | 100
CS(=O)(=O)c1ccccc1S(=O)(=O)Nc1ccc2[nH]nc(/C=C/c3ccc(F)cc3)c2c1 | 95
CS(=O)(=O)c1ccccc1S(=O)(=O)Nc1ccc2[nH]nc(C#Cc3ccccc3)c2c1 | 90
O=S(=O)(Nc1ccc2[nH]nc(-c3ccccc3)c2c1)c1ccc(F)cc1 | 56
CN(C)c1cccc2c(S(=O)(=O)Nc3cccc(-c4n[nH]c5ccc(NS(=O)(=O)c6ccccc6S(C)(=O)=O)cc45)c3)cccc12 | 20
CS(=O)(=O)c1ccccc1S(=O)(=O)Nc1ccc2[nH]nc(-c3cc(Cl)cc(Cl)c3)c2c1 | 50
CS(=O)(=O)c1ccccc1S(=O)(=O)Nc1ccc2[nH]nc(-c3cccc(C#N)c3)c2c1 | 90
CN(C)c1cccc2c(S(=O)(=O)Nc3ccc4[nH]nc(-c5ccccc5)c4c3)cccc12 | 84
CS(=O)(=O)c1ccccc1S(=O)(=O)Nc1ccc2[nH]nc(-c3cc(F)cc(F)c3)c2c1 | 74
CS(=O)(=O)c1ccccc1S(=O)(=O)Nc1ccc2[nH]nc(-c3ccccc3F)c2c1 | 61
Cc1cc(-c2n[nH]c3ccc(NS(=O)(=O)c4ccccc4S(C)(=O)=O)cc23)ccc1F | 66
COc1cccc(-c2n[nH]c3ccc(NS(=O)(=O)c4ccccc4S(C)(=O)=O)cc23)c1 | 67
CS(=O)(=O)c1ccccc1S(=O)(=O)Nc1ccc2[nH]nc(-c3cccnc3)c2c1 | 88

SMILES | inhibition [%]
N#Cc1ccccc1S(=O)(=O)Nc1ccc2[nH]nc(-c3ccccc3)c2c1 | 69
CS(=O)(=O)c1ccccc1S(=O)(=O)Nc1ccc2[nH]nc(-c3ccncc3)c2c1 | 87
CC1(C)[C@H]2CC[C@]1(CS(=O)(=O)Nc1ccc3[nH]nc(-c4ccccc4)c3c1)C(=O)C2 | 30
CC(=O)Nc1n[nH]c2ccc(NS(=O)(=O)c3ccccc3S(C)(=O)=O)cc12 | 96
COc1ccc(-c2n[nH]c3ccc(NS(=O)(=O)c4ccccc4S(C)(=O)=O)cc23)c(OC)c1 | 27
CS(=O)(=O)c1ccccc1S(=O)(=O)Nc1ccc2[nH]nc(-c3ccccc3-c3ccccc3)c2c1 | 27
CC(C)c1ccc(-c2n[nH]c3ccc(NS(=O)(=O)c4ccccc4S(C)(=O)=O)cc23)cc1 | 24
O=[N+]([O-])c1ccc(S(=O)(=O)Nc2ccc3[nH]nc(-c4ccccc4)c3c2)cc1 | 50
CS(=O)(=O)c1ccccc1S(=O)(=O)Nc1ccc2[nH]nc(-c3ccco3)c2c1 | 76
Cc1ccccc1-c1n[nH]c2ccc(NS(=O)(=O)c3ccccc3S(C)(=O)=O)cc12 | 25
CCOc1ccc(-c2n[nH]c3ccc(NS(=O)(=O)c4ccccc4S(C)(=O)=O)cc23)cc1 | 74
O=S(=O)(Nc1ccc2[nH]nc(-c3cc4ccccc4[nH]3)c2c1)c1cccc(F)c1 | 99
CS(=O)(=O)c1ccccc1S(=O)(=O)Nc1ccc2[nH]nc(-c3ccc(OCc4ccccc4)c(F)c3)c2c1 | 41
CS(=O)(=O)c1ccccc1S(=O)(=O)Nc1ccc2[nH]nc(-c3ccc(OCc4ccccc4)cc3)c2c1 | 16
O=S(=O)(Nc1ccc2[nH]nc(-c3ccccc3)c2c1)c1cccc2nonc12 | 67
CCCNC(=O)c1n[nH]c2ccc(NS(=O)(=O)c3ccccc3S(C)(=O)=O)cc12 | 96
CS(=O)(=O)c1ccccc1S(=O)(=O)Nc1ccc2[nH]nc(-c3ccc(I)cc3)c2c1 | 20
O=S(=O)(Nc1ccc2[nH]nc(-c3ccccc3)c2c1)c1cccs1 | 80
COc1ccc(-c2n[nH]c3ccc(NS(=O)(=O)c4ccccc4S(C)(=O)=O)cc23)cc1 | 93
CC(C)c1cccc(-c2n[nH]c3ccc(NS(=O)(=O)c4ccccc4S(C)(=O)=O)cc23)c1 | 59
CS(=O)(=O)c1ccccc1S(=O)(=O)Nc1ccc2[nH]nc(-c3ccc(N)cc3)c2c1 | 85
CS(=O)(=O)c1ccccc1S(=O)(=O)Nc1ccc2[nH]nc(/C=C/c3ccccc3)c2c1 | 96

SMILES | inhibition [%]
Nc1n[nH]c2ccc(NS(=O)(=O)c3c(F)cccc3F)cc12 | 12
CS(=O)(=O)c1ccccc1S(=O)(=O)Nc1ccc2[nH]nc(-c3ccc(C#N)cc3)c2c1 | 86
O=S(=O)(Nc1ccc2[nH]nc(-c3cc4ccccc4[nH]3)c2c1)c1ccccc1OC(F)(F)F | 94
CS(=O)(=O)c1ccc(F)cc1S(=O)(=O)Nc1ccc2[nH]nc(-c3ccccc3)c2c1 | 87
CS(=O)(=O)c1ccccc1S(=O)(=O)Nc1ccc2[nH]nc(-c3ccc(Cl)c(Cl)c3)c2c1 | 66
CS(=O)(=O)c1ccccc1S(=O)(=O)Nc1ccc2[nH]nc(-c3cc(C(F)(F)F)cc(C(F)(F)F)c3)c2c1 | 28
CS(=O)(=O)c1ccccc1S(=O)(=O)Nc1ccc2[nH]nc(NC(=O)c3ccccc3)c2c1 | 95
CS(=O)(=O)c1ccccc1S(=O)(=O)Nc1ccc2[nH]nc(-c3ccc[nH]3)c2c1 | 99
CS(=O)(=O)c1ccccc1S(=O)(=O)Nc1ccc2[nH]nc(N)c2c1 | 72
CS(=O)(=O)c1ccccc1S(=O)(=O)Nc1ccc2[nH]nc(-c3cccc4c3oc3ccccc34)c2c1 | 13
Nc1ccc(S(=O)(=O)Nc2ccc3[nH]nc(-c4ccccc4)c3c2)cc1 | 70
O=C(NCc1ccc(S(=O)(=O)Nc2ccc3[nH]nc(-c4ccccc4)c3c2)s1)c1ccccc1 | 40
CS(=O)(=O)c1ccccc1S(=O)(=O)Nc1ccc2[nH]nc(Sc3ccccc3)c2c1 | 82
Cc1ccccc1S(=O)(=O)Nc1ccc2[nH]nc(-c3ccccc3)c2c1 | 77
Cc1cc(C)c(S(=O)(=O)Nc2ccc3[nH]nc(-c4ccccc4)c3c2)c(C)c1 | 79
CS(=O)(=O)c1ccccc1S(=O)(=O)Nc1ccc2[nH]nc(-c3nc4ccccc4[nH]3)c2c1 | 99
O=S(=O)(Nc1ccc2[nH]nc(-c3ccccc3)c2c1)c1ccccc1C(F)(F)F | 81
Cc1cccc(-c2n[nH]c3ccc(NS(=O)(=O)c4ccccc4S(C)(=O)=O)cc23)c1 | 71
CS(=O)(=O)c1ccccc1S(=O)(=O)Nc1ccc2[nH]nc(-c3cccc(Br)c3)c2c1 | 73
CCOc1ccccc1-c1n[nH]c2ccc(NS(=O)(=O)c3ccccc3S(C)(=O)=O)cc12 | 31
CS(=O)(=O)c1ccccc1S(=O)(=O)Nc1ccc2[nH]nc(-c3cc4ccccc4o3)c2c1 | 93
